# Results taken from patent publication US4370331A, “L-Glaucine containing composition for cough relief” (Karl O. Helm Aktiengesellschaft, priority 1977, dated 1983).
# “And” between values parts separate entries of the source, which are not always exact repeats. Identical values can stand only once. Counter-ions that a name gives are not always drawn. Like-named read-outs stand apart in the source and are kept apart here.
# Columns and labels:
# [1] = test system: mice; experiment: Toxicity (LD50) in mice by the Wilcox method, Comparative test 7; type: in vivo
# Description: (§1) The toxicity thresholds of codeine phosphate, of d-glaucine hydrobromide and of d,l-glaucine hydrobromide were determined in mice by the Wilcox method. […] The toxicities of codeine phosphate and d,l-glaucine hydrobromide are about equal.
# [2] = as above; type: in vivo; details: mouse, in vivo
# Description: as §1
# [3] = test system: coughing centre; experiment: Coughing reflex by electrical stimulation of upper laryngeal nerves of anaesthetized cats (method of Domenjoz), Comparative test 5; type: in vivo; details: intravenous, anaesthetized cats
# Description: In a series of tests conducted by the method of Domenjoz, the effects of the different active substances on the coughing centre was examined by electrical stimulation of the upper laryngeal nerves of anaesthetized cats. Electrical stimulation of the nerve produces a coughing reflex and the intention is to reduce this by intravenous injection of the active substance. The minimal effective dose MED is determined by increasing the dose from 0.1 mg/kg of body weight up to 0.3 mg/kg, 1.0 mg/kg, 3.0 mg/kg and 6.0 mg/kg, until the dose is sufficient for completely suppressing the coughing reflex.
# In these tests each animal was given, on the one hand, codeine and, on the other hand, at sufficient time intervals also glaucine, so that the ratio of the minimal effective doses of glaucine and codeine can be deduced.
# [4] = test system: cough pulses; experiment: Oral citric acid aerosol cough test in guinea pigs, time course 1-24 h, Comparative test 6; type: in vivo; details: codeine phosphate 75, d,l-glaucine hydrobromide 150, hydrochloride 135, embonate 378 mg/kg
# Description: In a further comparative test, 40 female guinea pigs with body weights between 230 and 500 g were divided into 4 groups and each animal was again subjected to the action of a 20% citric acid aerosol for 8 minutes. From the control values thus obtained the average control value for each group was calculated. Each animal of each group was then given, by means of a throat probe, either 75 mg/kg of codeine phosphate, or 135 mg/kg of d,l-glaucine hydrochloride, or 150 mg/kg of d,1-glaucine hydrobromide, or 378 mg/kg of d,l-glaucine embonate. These doses are the equimolar quantities, based on glaucine. After a period of 1, or 3, or 5, or 24 hours each animal was again subjected for 8 minutes to the action of the citric acid aerosol, and the number of cough pulses during this period was recorded. The values thus obtained were compared with the control values and the percent deviation of the average measured value for each group, from the average control value, was calculated.
# [5] = test system: isolated guinea pig intestines (contractions induced by electric voltages); experiment: Suppression of electrically induced contractions in isolated guinea pig intestines, Comparative test 4; details: isolated guinea pig intestine; codeine: increased doses; d-glaucine: higher concentrations than 4×10^-5; d,l-glaucine: 4×10^-5 to 6×10^-5
# [6] = test system: cough pulses; experiment: Oral citric acid aerosol cough test in guinea pigs, 1 h (equivalent effective doses), Comparative test 6; type: in vivo; details: for Cough pulses percent of control value: 20% citric acid aerosol 8 min
# [7] = test system: cough pulses; experiment: Citric acid aerosol cough test in guinea pigs, subcutaneous, 30 min (method of Friebel and Reichle), Comparative test 1; type: in vivo; details: s.c.; for ED50: Cavia porcellus, sc, 0.5 h, 30 min after administering, 20% citric acid aerosol, 8 min
# Description: In order to compare the anti-cough effectiveness of codeine phosphate with the effectiveness of the different isomers of glaucine hydrobromide, the testing method of Friebel and Reichle was used. 60 guinea pigs with weights between 200 and 300 g were divided up into ten groups of different sizes. Before administering the active substance, each animal was subjected, on the same day as the day of test with the active substance, for a period of 8 minutes to an aerosol of 20% citric acid, the animal being confined in a chamber at constant air pressure. During this control test the number of cough pulses was counted with the help of a pressure transmitter. From these measurements an average control value for each group was calculated. After this preliminary control test, there was given subcutaneously to each animal of each group a suspension of the active substance in 1% sodium carboxymethyl cellulose. After 30 minutes each animal was again exposed in the test chamber for 8 minutes to the aerosol of 20% citric acid and the number of cough pressure pulses recorded. The different active substances were administered in increasing doses ranging from 3 mg/kg to 100 mg/kg of body weight. Altogether eight different doses were given. The results were expressed as percent deviation from the average control value for the group on the same day, the deviation being entered in a diagram against the logarithm of the dose administered. From the resulting effectiveness curve, based on the logarithm of the dose, the coefficient of correlation and the ED50 were calculated for each active substance, by the regression analysis method of Downie and Heath (1965). The values obtained for codeine phosphate, for d-glaucine hydrobromide, for d,l-glaucine hydrobromide and for l-glaucine hydrobromide thirty minutes after administering the active substance are summarized in Table I.
# [8] = test system: intestinal motility; experiment: Intestinal motility / evacuation action of stomach-intestinal tract of mice (carbon suspension), Comparative test 2; type: in vivo; details: s.c.; for Distance travelled average % (of intestine length): 2 h, control 74.3%, * = significantly different from control (p < 0.05)
# Description: One of the most unpleasant side effects of anti-cough medicine containing codeine is constipation and the occurrence of intestinal spasms. A model test for determining the effects of anti-cough active substances on intestinal motility and on the evacuation action of the stomach-intestinaltract of mice was therefore made. After subcutaneous injection of the active substance, each animal was given, through a throat probe, a 10% suspension of carbon in a 5% aqueous slurry of gum arabic. Two hours later the intestine was sectioned and the distance of stomach coecum measured, and also the distance travelled by the carbon, which was expressed as percent of intestine length.
# The effects of codeine phosphate, of d-glaucine hydrobromide and of l-glaucine hydrobromide on intestinal motility were determined at different doses. For each dose the average value was calculated for a sufficient number of animals.
# [9] = test system: isolated guinea pig intestines (contractions induced by electric voltages); experiment: Suppression of electrically induced contractions in isolated guinea pig intestines, Comparative test 4; parameters: electrically induced contractions (Table III): unit not given here
# Description: In a further series of tests the effects of different doses of codeine phosphate in suppressing contractions induced in isolated guinea pig intestines by electric voltages were tested. For this purpose one electrode was immersed in the solution surrounding the intestinal preparation. The second electrode was connected to the preparation at the attachment point.
# [10] = test system: isolated guinea pig intestine (spasms induced by carbachol); experiment: Suppression of spasms induced by carbachol in isolated guinea pig intestine; details: Cavia porcellus, read-out: concentration effective against carbachol induced spasms
# Description: In further tests it was investigated in what concentrations the active substances being compared suppress spasms induced in isolated guinea pig intestine by carbachol or histamine. […] On the other hand d,l-glaucine was effective against histamine at molar concentrations of only 4×10^-8 to 4×10^-6 and against carbachol at molar concentrations of only 4×10^-7.
# [11] = test system: anti-cough effectiveness; experiment: Oral anti-cough effectiveness in guinea pigs, 5% acid aerosol, Comparative test 8; type: in vivo; details: 1 h before 10 min exposure to 5% acid aerosol, last 5 minutes measured
smiles,measurement,setting,value
"COc1ccc2c3c1O[C@H]1[C@@H](O)C=C[C@H]4[C@@H](C2)N(C)CC[C@@]341 [codeine phosphate, reference compound]","toxicity, comparison in words",[1],about equal
same,LD50,"[2]; po, peroral, read-out: LD50 peroral",640 mg/kg
same,LD50,"[2]; sc, subcutaneous, read-out: LD50 subcutaneous",230 mg/kg
same,minimal effective dose,"[3]; Felis catus, read-out: MED (minimal effective dose completely suppressing the coughing reflex)",6 mg/kg
same,Duration of cough suppression,[3]; at MED,18 to 54 min
same,"Cough pulses during 8 minutes, percent of control value, after 1 h",[4]; 1 h,84%
same,"Cough pulses during 8 minutes, percent of control value, after 3 h",[4]; 3 h,70%
same,"Cough pulses during 8 minutes, percent of control value, after 5 h",[4]; 5 h,84%
same,"Cough pulses during 8 minutes, percent of control value, after 24 h",[4]; 24 h,95%
same,"induced spontaneous activity, in words",[5],the spontaneous activity induced by the codeine phosphate itself increases the contractions
same,Cough pulses percent of control value,[6]; 50 mg/kg,37%
same,Cough pulses percent of control value,[6]; 100 mg/kg,50%
same,"dose having about the same effect (codeine phosphate vs d,l-glaucine hydrobromide)",[6]; guinea pigs,~75 mg per kg of body weight
same,ED50,[7],20.6 mg/kg
same,Distance travelled average % (of intestine length),[8]; 3 mg/kg,70.4%
same,Distance travelled average % (of intestine length),[8]; 10 mg/kg,74.3%
same,Distance travelled average % (of intestine length),[8]; 30 mg/kg,34.8%
same,Distance travelled average % (of intestine length),[8]; 100 mg/kg,20.6%
same,inhibition at 10 µM,"[9]; Cavia porcellus, molar concentration of about 10^-5, read-out: suppression of electrically induced contraction reflexes",~50%
same,electrically induced contractions (Table III),[9]; molar concentration 1 × 10^-5,49
same,electrically induced contractions (Table III),[9]; molar concentration 2 × 10^-5,36 and 52
same,electrically induced contractions (Table III),[9]; molar concentration 4 × 10^-5,58
same,electrically induced contractions (Table III),[9]; molar concentration 5 × 10^-6,85 and 51
"COc1cc2c(cc1OC)-c1c(OC)c(OC)cc3c1C(C2)N(C)CC3 (racemic) [d,l-glaucine]","toxicity, comparison in words",[1],considerably less toxic than d-glaucine
same,minimal effective concentration,[10],0.4 µM
"COc1cc2c(cc1OC)-c1c(OC)c(OC)cc3c1[C@@H](C2)N(C)CC3 [1-glaucine-d-tartrate, l-glaucine-d-tartrate]",Oral ED50,[11]; 60 min,"6,8 mg/kg"
COc1cc2c(cc1OC)-c1c(OC)c(OC)cc3c1[C@@H](C2)N(C)CC3 [l-glaucine hydrobromide],ED50,"[11]; Cavia porcellus, po, 1 h",7.21 mg/kg
same,ED50,[7],31.2 mg/kg
same,"ED50 value, comparison in words",[7]; 30 min,considerably lower effective dose ED50 value compared to d-glaucine hydrobromide
same,Distance travelled average % (of intestine length),[8]; 3 mg/kg,74.3%
same,"intestinal activity, in words",[8]; 10 mg/kg,significant increase in intestinal activity
same,Distance travelled average % (of intestine length),[8]; 10 mg/kg,94.3%
same,"intestinal motility, in words",[8]; 30 mg/kg and 100 mg/kg,considerably more than the corresponding values for d-glaucine hydrobromide and codeine phosphate
same,Distance travelled average % (of intestine length),[8]; 30 mg/kg,85.4%
same,Distance travelled average % (of intestine length),[8]; 100 mg/kg,51.8%
same,"suppression of electrically induced contraction reflexes, in words",[9]; 4×10^-5,"more effectively suppressed, compared to what is obtained using d-glaucine hydrobomide"
same,"suppression of electrically induced contractions, in words",[9]; 8×10^-5,suppressed even more effectively
same,electrically induced contractions (Table III),"[9]; molar concentration 1 × 10^-5, hydrobromide",71 and 74
same,electrically induced contractions (Table III),"[9]; molar concentration 2 × 10^-5, hydrobromide",64 and 32
same,electrically induced contractions (Table III),"[9]; molar concentration 4 × 10^-5, hydrobromide",24 and 23
same,electrically induced contractions (Table III),[9]; molar concentration 8 × 10^-5,7
